As a reminder, the IC50 is the concentration that gives 50% inhibition. The low end stands for higher potency, the high end for lower potency.

Test [1] addresses S. aureus Alpha hemolysin (Staphylococcus aureus, UniProt P09616). Briefly: cell-based.
Test [2] addresses hemolysin alpha from Staphylococcus aureus (Staphylococcus aureus, UniProt P09616). Briefly: cell-based.

Each structure is given as a SMILES string.

Chain of S. aureus Alpha hemolysin (P09616 27-319 limits assumed): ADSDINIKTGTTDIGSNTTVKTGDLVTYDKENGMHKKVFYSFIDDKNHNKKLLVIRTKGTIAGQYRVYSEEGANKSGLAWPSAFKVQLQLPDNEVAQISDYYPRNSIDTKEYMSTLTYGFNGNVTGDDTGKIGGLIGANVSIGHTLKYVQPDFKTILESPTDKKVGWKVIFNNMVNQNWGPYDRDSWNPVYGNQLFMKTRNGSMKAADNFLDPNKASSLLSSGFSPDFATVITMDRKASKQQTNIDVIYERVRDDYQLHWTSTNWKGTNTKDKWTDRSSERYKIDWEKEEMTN
Chain of hemolysin alpha from Staphylococcus aureus (P09616 27-319 limits assumed): as above

`Cc1cc2[nH]c(=O)c(=O)[nH]c2nc1S(=O)(=O)Nc1ccc(-c2ccc(F)cc2)c(Cl)c1` [Compound 9, N-(2-chloro-4′-fluoro-[1,1′-biphenyl]-4-yl)-7-methyl-2,3-dioxo-1,2,3,4-tetrahydropyrido[2,3-b]pyrazine-6-sulfonamide]: the IC50 in test [1] is 100 to 1000 nM; in test [2], below 30 nM.

Turning to `Cc1cc2[nH]c(=O)c(=O)[nH]c2nc1S(=O)(=O)Nc1ccc(-c2ccc(F)c(Cl)c2)c(Cl)c1` [Compound 10, N-(2,3′-dichloro-4′-fluoro-[1,1′-biphenyl]-4-yl)-7-methyl-2,3-dioxo-1,2,3,4-tetrahydropyrido[2,3-b]pyrazine-6-sulfonamide], the IC50 in test [1] is 1000 to 6000 nM; in test [2], 30 to 100 nM.

As to `Cc1cc2[nH]c(=O)c(=O)[nH]c2nc1S(=O)(=O)Nc1ccc(-c2cncc(Cl)c2)c(Cl)c1` [Compound 11, N-(3-chloro-4-(5-chloropyridin-3-yl)phenyl)-7-methyl-2,3-dioxo-1,2,3,4-tetrahydropyrido[2,3-b]pyrazine-6-sulfonamide], the IC50 in test [1] and in test [2] was 100 to 1000 nM in each case.

Regarding `Cc1cc2[nH]c(=O)c(=O)[nH]c2nc1S(=O)(=O)Nc1cnc(-c2ccc(F)cc2)c(Cl)c1` [Compound 12, N-(5-chloro-6-(4-fluorophenyl)pyridin-3-yl)-7-methyl-2,3-dioxo-1,2,3,4-tetrahydropyrido[2,3-b]pyrazine-6-sulfonamide], the figures for the IC50 in test [1] and in test [2] were 1000 to 6000 nM and 30 to 100 nM, respectively.

For the compound `Cc1cc2[nH]c(=O)c(=O)[nH]c2nc1S(=O)(=O)Nc1cnc(-c2cncc(Cl)c2)c(Cl)c1` [Compound 13, N-(3,5′-dichloro-[2,3′-bipyridin]-5-yl)-7-methyl-2,3-dioxo-1,2,3,4-tetrahydropyrido[2,3-b]pyrazine-6-sulfonamide], in test [2], the half-inhibitory concentration (IC50) was in the range of 1000 to 3500 nM.

For `COc1ccc(-c2ccc(NS(=O)(=O)c3nc4[nH]c(=O)c(=O)[nH]c4cc3C)cc2Cl)cc1F` [Compound 14, N-(2-chloro-3′-fluoro-4′-methoxy-[1,1′-biphenyl]-4-yl)-7-methyl-2,3-dioxo-1,2,3,4-tetrahydropyrido[2,3-b]pyrazine-6-sulfonamide], the half-inhibitory concentration (IC50) in test [1] was 100 to 1000 nM; in test [2], 30 to 100 nM.

As to `Cc1nc2cc(-c3ccc(NS(=O)(=O)c4nc5[nH]c(=O)c(=O)[nH]c5cc4C)cc3Cl)ccc2o1` [Compound 15, N-(3-chloro-4-(2-methylbenzo[d]oxazol-5-yl)phenyl)-7-methyl-2,3-dioxo-1,2,3,4-tetrahydropyrido[2,3-b]pyrazine-6-sulfonamide], the IC50 in test [1] was 30 to 100 nM; in test [2], below 30 nM.

Regarding `Cc1cc2[nH]c(=O)c(=O)[nH]c2nc1S(=O)(=O)Nc1ccc(-c2ccc3cc[nH]c3c2)c(Cl)c1` [Compound 16, N-(3-chloro-4-(1H-indol-6-yl)phenyl)-7-methyl-2,3-dioxo-1,2,3,4-tetrahydropyrido[2,3-b]pyrazine-6-sulfonamide], the 50% inhibitory concentration (IC50) in test [1] is 100 to 1000 nM; in test [2] it was below 30 nM.

For the compound `Cc1cc2[nH]c(=O)c(=O)[nH]c2nc1S(=O)(=O)Nc1ccc(-c2ccc(C#N)cc2)c(Cl)c1` [Compound 17, N-(2-chloro-4′-cyano-[1,1′-biphenyl]-4-yl)-7-methyl-2,3-dioxo-1,2,3,4-tetrahydropyrido[2,3-b]pyrazine-6-sulfonamide], the half-maximal inhibitory concentration (IC50) in test [1] was in the range of 100 to 1000 nM; in test [2], 30 to 100 nM.

On to `Cc1cc(NS(=O)(=O)c2nc3[nH]c(=O)c(=O)[nH]c3cc2C)ccc1Br` [Compound 18, N-(4-bromo-3-methylphenyl)-7-methyl-2,3-dioxo-1,2,3,4-tetrahydropyrido[2,3-b]pyrazine-6-sulfonamide], for which the IC50 in test [1] and in test [2] was 100 to 1000 nM throughout.

Regarding `Cc1cc2[nH]c(=O)c(=O)[nH]c2nc1S(=O)(=O)Nc1ccc(C(C)C)cc1` [Compound 19, N-(4-isopropylphenyl)-7-methyl-2,3-dioxo-1,2,3,4-tetrahydropyrido[2,3-b]pyrazine-6-sulfonamide], the IC50 in test [1] and in test [2] was 100 to 1000 nM in each case.

Take `Cc1cc2[nH]c(=O)c(=O)[nH]c2nc1S(=O)(=O)Nc1ccc(C2=CCCCC2)cc1` [Compound 20, 7-methyl-2,3-dioxo-N-(2′,3′,4′,5′-tetrahydro-[1,1′-biphenyl]-4-yl)-1,2,3,4-tetrahydropyrido[2,3-b]pyrazine-6-sulfonamide]: the half-inhibitory concentration (IC50) in test [1] and in test [2] was 100 to 1000 nM throughout.

With `Cc1cc2[nH]c(=O)c(=O)[nH]c2nc1S(=O)(=O)Nc1ccc(C2CCC2)cc1` [Compound 21, N-(4-cyclobutylphenyl)-7-methyl-2,3-dioxo-1,2,3,4-tetrahydropyrido[2,3-b]pyrazine-6-sulfonamide], the 50% inhibitory concentration (IC50) in test [1] is 30 to 100 nM; in test [2], below 30 nM.

Take `Cc1cc2[nH]c(=O)c(=O)[nH]c2nc1S(=O)(=O)Nc1ccc(OC(F)(F)F)cc1` [Compound 22, 7-methyl-2,3-dioxo-N-(4-(trifluoromethoxy)phenyl)-1,2,3,4-tetrahydropyrido[2,3-b]pyrazine-6-sulfonamide]: the IC50 in test [1] and in test [2] was below 30 nM each time.

`Cc1cc2[nH]c(=O)c(=O)[nH]c2nc1S(=O)(=O)Nc1ccc(C23CC(C2)C3)cc1` [Compound 23, N-(4-(bicyclo[1.1.1]pentan-1-yl)phenyl)-7-methyl-2,3-dioxo-1,2,3,4-tetrahydropyrido[2,3-b]pyrazine-6-sulfonamide]: the IC50 is 100 to 1000 nM in test [1] and below 30 nM in test [2].

Regarding `Cc1cc2[nH]c(=O)c(=O)[nH]c2nc1S(=O)(=O)Nc1ccc2ccccc2c1` [Compound 24, 7-methyl-N-(naphthalen-2-yl)-2,3-dioxo-1,2,3,4-tetrahydropyrido[2,3-b]pyrazine-6-sulfonamide], the IC50 in test [1] and in test [2] was 100 to 1000 nM in each case.

`O=c1[nH]c2cc(Br)c(S(=O)(=O)Nc3ccc(OC(F)(F)F)cc3)nc2[nH]c1=O` [Compound 25, 7-bromo-2,3-dioxo-N-(4-(trifluoromethoxy)phenyl)-1,2,3,4-tetrahydropyrido[2,3-b]pyrazine-6-sulfonamide]: the 50% inhibitory concentration (IC50) in test [1] was in the range of 100 to 1000 nM; in test [2] it was 30 to 100 nM.

Turning to `O=c1[nH]c2ccc(S(=O)(=O)Nc3ccc(OC(F)(F)F)cc3)nc2[nH]c1=O` [Compound 26, 2,3-dioxo-N-(4-(trifluoromethoxy)phenyl)-1,2,3,4-tetrahydropyrido[2,3-b]pyrazine-6-sulfonamide], the half-inhibitory concentration (IC50) in test [1] and in test [2] was 100 to 1000 nM each time.

For `C=C(C)c1cc2[nH]c(=O)c(=O)[nH]c2nc1S(=O)(=O)Nc1ccc(OC(F)(F)F)cc1` [Compound 27, 2,3-dioxo-7-(prop-1-en-2-yl)-N-(4-(trifluoromethoxy)phenyl)-1,2,3,4-tetrahydropyrido[2,3-b]pyrazine-6-sulfonamide], the half-maximal inhibitory concentration (IC50) in test [1] and in test [2] was below 30 nM throughout.

In test [2], `Cc1nc2ccc(-c3ccc(NS(=O)(=O)c4ccc5[nH]c(=O)c(=O)[nH]c5n4)cc3Cl)cc2[nH]1` [Compound 30, N-(3-chloro-4-(2-methyl-1H-benzo[d]imidazol-6-yl)phenyl)-2,3-dioxo-1,2,3,4-tetrahydropyrido[2,3-b]pyrazine-6-sulfonamide] showed a concentration for half-maximal inhibition (IC50) of 1000 to 3500 nM.
